Results published in patent publication US9073931B2, “Liver X receptor modulators” (Vitae Pharmaceuticals, Inc., priority 2012, dated 2015).
pEC50, pKi: −log10 of the molar value. Like-named read-outs stand apart in the source and are kept apart here.

Experiments:
LBD of LXRβ [1] = target: T1, LBD of LXRβ (Homo sapiens (Human), UniProt P55055)
LXR β LBD protein = LXR β LBD protein (Homo sapiens (Human), UniProt P55055); assay: LXR β radioligand binding assay (SPA, [3H]T0901317 competition); conditions: competition with 15 nM [3H]T0901317, LXRβ LBD
LXR β LBD protein, sequence (P55055 222-460): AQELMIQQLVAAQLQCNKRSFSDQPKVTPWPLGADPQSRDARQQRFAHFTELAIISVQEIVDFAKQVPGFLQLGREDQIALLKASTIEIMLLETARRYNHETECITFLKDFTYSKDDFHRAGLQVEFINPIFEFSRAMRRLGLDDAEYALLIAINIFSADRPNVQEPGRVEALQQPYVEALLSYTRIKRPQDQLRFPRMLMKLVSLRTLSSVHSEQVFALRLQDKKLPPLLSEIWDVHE

LBD of LXRβ [2] = target: T1, LBD of LXRβ; assay: cell-based

T1 sequence (P55055 222-460): as above

| pKi (LXR β LBD protein) | pEC50 (LBD of LXRβ [2]) | Compound | pEC50 (LBD of LXRβ [1]) |
| --- | --- | --- | --- |
| 6.62 | < 4.70 | CC(C)[C@@H]1c2nc3cc(CO)c(S(C)(=O)=O)cc3n2CCN1c1ncc(C(N)=O)c(C(F)(F)F)n1 (single isomer, unassigned) [Compound E15a] |  |
| 8.15 | 7.80 | CC(=O)c1cnc(N2CCn3c(cc4cc(CO)c(S(C)(=O)=O)cc43)C2C(C)C)nc1C(F)(F)F (racemic) [Compound E26, (±)-1-(2-(8-(hydroxymethyl)-1-isopropyl-7-(methylsulfonyl)-3,4-dihydropyrazino[1,2-a]indol-2(1H)-yl)-4-(trifluoromethyl)pyrimidin-5-yl)ethanone] |  |
| 8.30 | 7.14 | CCOC(=O)c1cnc(N2CCn3c(cc4cc(CO)c(S(C)(=O)=O)cc43)C2C(C)C)nc1C(F)(F)F (racemic) [Compound E28, (±)-Ethyl 2-(8-(hydroxymethyl)-1-isopropyl-7-(methylsulfonyl)-3,4-dihydropyrazino[1,2-a]indol-2(1H)-yl)-4-(trifluoromethyl)pyrimidine-5-carboxylate] |  |
| 6.86 | 6.53 | CC(C)C1c2nc3ccc(S(C)(=O)=O)cc3n2CCN1c1ncc(CO)c(C(F)(F)F)n1 (racemic) [Compound E4, (2-(1-isopropyl-7-(methylsulfonyl)-3,4-dihydrobenzo[4,5]imidazo[1,2-a]pyrazin-2(1H)-yl)-4-(trifluoromethyl)pyrimidin-5-yl)methanol] |  |
| 8.00 | 8.00 | Cc1cnc(N2CCn3c(nc4cc(CO)c(S(C)(=O)=O)cc43)[C@H]2C(C)C)nc1C(F)(F)F [Compound E21, (R)-(1-isopropyl-2-(5-methyl-4-(trifluoromethyl)pyrimidin-2-yl)-7-(methylsulfonyl)-1,2,3,4-tetrahydrobenzo[4,5]imidazo[1,2-a]pyrazin-8-yl)methanol] |  |
| 8.22 | 7.30 | CCOC(=O)c1cnc(N2CCn3c(nc4cc(CO)c(S(C)(=O)=O)cc43)[C@H]2C(C)C)nc1C(F)(F)F [Compound E12, (R)-ethyl 2-(8-(hydroxymethyl)-1-isopropyl-7-(methylsulfonyl)-3,4-dihydrobenzo[4,5]imidazo[1,2-a]pyrazin-2(1H)-yl)-4-(trifluoromethyl)pyrimidine-5-carboxylate] |  |
| < 5.60 | < 4.70 | CC(C)[C@H]1c2nc3cc(CO)c(S(C)(=O)=O)cc3n2CCN1c1ncc(CO)c(C2CC2)n1 (single isomer, unassigned) [Compound E20b] |  |
| 8.70 |  | CC(C)C1c2cc3cc(CO)c(S(C)(=O)=O)cc3n2CCN1c1ncc(C(C)(C)O)c(C(F)(F)F)n1 (single isomer, unassigned) [Compound E27a, 2-(2-(8-(hydroxymethyl)-1-isopropyl-7-(methylsulfonyl)-3,4-dihydropyrazino[1,2-a]indol-2(1H)-yl)-4-(trifluoromethyl)pyrimidin-5-yl)propan-2-ol] | 8.00 |
| < 5.60 | < 4.70 | CC(C)[C@H]1c2nc3cc(CO)c(S(C)(=O)=O)cc3n2CCN1c1ncc(C(N)=O)c(C(F)(F)F)n1 (single isomer, unassigned) [Compound E15b] |  |
| 8.00 | 7.77 | COC(=O)c1cnc(N2CCn3c(nc4cc(CO)c(S(C)(=O)=O)cc43)[C@H]2C(C)C)nc1C(F)(F)F [Compound E30, (R)-methyl 2-(8-(hydroxymethyl)-1-isopropyl-7-(methylsulfonyl)-3,4-dihydrobenzo[4,5]imidazo[1,2-a]pyrazin-2(1H)-yl)-4-(trifluoromethyl)pyrimidine-5-carboxylate] |  |
| 7.68 |  | CC(C)[C@@H]1c2cc3ccc(S(C)(=O)=O)cc3n2CCN1c1ncc(C(C)(C)O)c(C(F)(F)F)n1 [Compound E23a, (R)-2-(2-(1-isopropyl-7-(methylsulfonyl)-3,4-dihydropyrazino[1,2-a]indol-2(1H)-yl)-4-(trifluoromethyl)pyrimidin-5-yl)propan-2-ol] | 6.51 |
| 6.66 | < 4.70 | CC(C)[C@@H]1c2nc3cc(CO)c(S(C)(=O)=O)cc3n2CCN1c1ncc(C(=O)N(C)C)c(C(F)(F)F)n1 (single isomer, unassigned) [Compound E17a] |  |
| < 5.60 | 5.31 | CC(C)[C@H]1c2nc3cc(CO)c(S(C)(=O)=O)cc3n2CCN1c1ncc(C(=O)N(C)C)c(C(F)(F)F)n1 (single isomer, unassigned) [Compound E17b] |  |
| 7.85 | 7.17 | CCCC(O)c1cnc(N2CCn3c(nc4cc(CO)c(S(C)(=O)=O)cc43)[C@H]2C(C)C)nc1C(F)(F)F (single isomer, unassigned) [Compound E11a] |  |
| 6.72 | 6.46 | CC(=O)c1cnc(N2CCn3c(nc4ccc(S(C)(=O)=O)cc43)C2C(C)C)nc1C(F)(F)F (racemic) [Compound E1, 1-(2-(1-isopropyl-7-(methylsulfonyl)-3,4-dihydrobenzo[4,5]imidazo[1,2-a]pyrazin-2(1H)-yl)-4-(trifluoromethyl)pyrimidin-5-yl)ethanone] |  |
| 6.75 | 6.42 | CC(C)C1c2nc3ccc(S(C)(=O)=O)cc3n2CCN1c1ncc(C(C)(C)O)c(C(F)(F)F)n1 (racemic) [Compound E2, 2-(2-(1-isopropyl-7-(methylsulfonyl)-3,4-dihydrobenzo[4,5]imidazo[1,2-a]pyrazin-2(1H)-yl)-4-(trifluoromethyl)pyrimidin-5-yl)propan-2-ol] |  |
| 7.64 | 6.99 | CCCC(O)c1cnc(N2CCn3c(nc4cc(CO)c(S(C)(=O)=O)cc43)[C@H]2C(C)C)nc1C(F)(F)F (single isomer, unassigned) [Compound E11b] |  |
| 6.15 |  | CC(C)C1c2cc3cc(CO)c(S(C)(=O)=O)cc3n2CCN1c1ncc(C(C)(C)O)c(C(F)(F)F)n1 (single isomer, unassigned) [Compound E27b, 2-(2-(8-(hydroxymethyl)-1-isopropyl-7-(methylsulfonyl)-3,4-dihydropyrazino[1,2-a]indol-2(1H)-yl)-4-(trifluoromethyl)pyrimidin-5-yl)propan-2-ol] | 5.84 |
| 5.61 |  | CC(C)[C@H]1c2cc3ccc(S(C)(=O)=O)cc3n2CCN1c1ncc(C(C)(C)O)c(C(F)(F)F)n1 [Compound E23b, (S)-2-(2-(1-isopropyl-7-(methylsulfonyl)-3,4-dihydropyrazino[1,2-a]indol-2(1H)-yl)-4-(trifluoromethyl)pyrimidin-5-yl)propan-2-ol] | 5.87 |
| 7.85 | 7.64 | CC(C)[C@@H]1c2nc3cc(CO)c(S(C)(=O)=O)cc3n2CCN1c1ncc(C(C)(C)O)c(C(F)(F)F)n1 (single isomer, unassigned) [Compound E7a] |  |
| < 5.60 | 5.66 | CC(C)[C@H]1c2nc3cc(CO)c(S(C)(=O)=O)cc3n2CCN1c1ncc(C(C)(C)O)c(C(F)(F)F)n1 (single isomer, unassigned) [Compound E7b] |  |
| 8.10 | 7.62 | COc1nc(N2CCn3c(nc4cc(CO)c(S(C)(=O)=O)cc43)[C@H]2C(C)C)ncc1C(F)(F)F [Compound E18, (R)-(1-isopropyl-2-(4-methoxy-5-(trifluoromethyl)pyrimidin-2-yl)-7-(methylsulfonyl)-1,2,3,4-tetrahydrobenzo[4,5]imidazo[1,2-a]pyrazin-8-yl)methanol] |  |
| 6.96 | < 4.70 | CC(C)[C@@H]1c2nc3cc(CO)c(S(C)(=O)=O)cc3n2CCN1c1ncc(CO)c(C2CC2)n1 (single isomer, unassigned) [Compound E20a] |  |

| Compound | pKi (LXR β LBD protein) | pEC50 (LBD of LXRβ [2]) | pEC50 (LBD of LXRβ [1]) |
| --- | --- | --- | --- |
| CC(C)[C@@H]1c2cc3ccc(S(C)(=O)=O)cc3n2CCN1c1ncc(CO)c(C(F)(F)F)n1 [Compound E25a, (R)-(2-(1-isopropyl-7-(methylsulfonyl)-3,4-dihydropyrazino[1,2-a]indol-2(1H)-yl)-4-(trifluoromethyl)pyrimidin-5-yl)methanol] | 8.22 |  | 7.08 |
| CC(O)c1cnc(N2CCn3c(cc4ccc(S(C)(=O)=O)cc43)C2C(C)C)nc1C(F)(F)F (single isomer, unassigned) [Compound E24c, 1-(2-(1-isopropyl-7-(methylsulfonyl)-3,4-dihydropyrazino[1,2-a]indol-2(1H)-yl)-4-(trifluoromethyl)pyrimidin-5-yl)ethanol] | 5.77 |  | 4.74 |
| CC(C)[C@H]1c2cc3ccc(S(C)(=O)=O)cc3n2CCN1c1ncc(CO)c(C(F)(F)F)n1 [Compound E25b, (S)-(2-(1-isopropyl-7-(methylsulfonyl)-3,4-dihydropyrazino[1,2-a]indol-2(1H)-yl)-4-(trifluoromethyl)pyrimidin-5-yl)methanol] | < 5.60 |  | 4.97 |
| CC(=O)c1cnc(N2CCn3c(cc4ccc(S(C)(=O)=O)cc43)[C@H]2C(C)C)nc1C(F)(F)F [Compound E22a, (R)-1-(2-(1-isopropyl-7-(methylsulfonyl)-3,4-dihydropyrazino[1,2-a]indol-2(1H)-yl)-4-(trifluoromethyl)pyrimidin-5-yl)ethanone] | 7.92 |  | 6.97 |
| CC(O)c1cnc(N2CCn3c(cc4ccc(S(C)(=O)=O)cc43)C2C(C)C)nc1C(F)(F)F (single isomer, unassigned) [Compound E24d, 1-(2-(1-isopropyl-7-(methylsulfonyl)-3,4-dihydropyrazino[1,2-a]indol-2(1H)-yl)-4-(trifluoromethyl)pyrimidin-5-yl)ethanol] | < 5.60 |  | < 4.70 |
| CC(O)c1cnc(N2CCn3c(cc4ccc(S(C)(=O)=O)cc43)C2C(C)C)nc1C(F)(F)F (single isomer, unassigned) [Compound E24b, 1-(2-(1-isopropyl-7-(methylsulfonyl)-3,4-dihydropyrazino[1,2-a]indol-2(1H)-yl)-4-(trifluoromethyl)pyrimidin-5-yl)ethanol] | 7.70 |  | 6.82 |
| CC(=O)c1cnc(N2CCn3c(cc4ccc(S(C)(=O)=O)cc43)[C@@H]2C(C)C)nc1C(F)(F)F [Compound E22b, (S)-1-(2-(1-isopropyl-7-(methylsulfonyl)-3,4-dihydropyrazino[1,2-a]indol-2(1H)-yl)-4-(trifluoromethyl)pyrimidin-5-yl)ethanone] | < 5.60 |  | 4.94 |
